The test system of data set [1] is A549 cells. Put plainly: Cytotoxicity assay (AlamarBlue). The following applies: read-out: CC50 (μM), cytotoxic concentration 50%; A549 cell line, 48 h. Here is the method:
(§1) Cytotoxicity Assay. The cytotoxicity of the compounds was analyzed by commercial kit AlamarBlue® (Invitrogen, Ref. DAL1025). A549 cells at a density of 5×10^3 cells per well in 96-well plates were seeded. […] Cells were then incubated at 37° C. for 48 h following the kit protocol. The cytotoxic concentration 50 (CC50) value was obtained using the statistical package GraphPad Prism. This assay was performed in duplicate.
A general note: The colour change of resazurin is a common sign of viable cells or microbes.

The test system of data set [2] is HAdV5-GFP. Put plainly: Time of addition assay. The note with it: for inhibition at 0.78 µM: FIG. 10. In kind it is cell-based, HAdV-5. Here is the method:
Time of Addition Curve Study. […] Parallel samples of HAdV-5 were incubated with or without the selected derivatives on ice for 1 h. […] The derivatives were added at the indicated time points before or during this incubation. After a total of 2 h at 37° C., cells were incubated for an additional 48 h at 37° C. and 5% CO2 before being analyzed for GFP expression using the Typhoon 9410 imager (GE Healthcare Life Sciences) as above.
Time of Addition Assay. […] Parallel samples of HAdV-5 were incubated with or without the selected derivatives on ice for 1 h. […] The derivatives were added at the indicated time points before or during this incubation. After a total of 2 h at 37° C., cells were incubated for an additional 48 h at 37° C. and 5% CO2 before being analyzed for GFP expression using the Typhoon 9410 imager (GE Healthcare Life Sciences) as above.
Time of Addition Assay. […] Parallel samples of HAdV-5 were incubated with or without the selected compounds on ice for 1 h. […] Compounds 153 and 161 were added at the indicated time points before or during this incubation. After a total of 2 h at 37° C., cells were incubated for an additional 48 h at 37° C. and 5% CO2 before being analyzed for GFP expression using the Typhoon 9410 imager (GE Healthcare Life Sciences) as above.

The nature of data set [3]: Cytotoxicity assay (AlamarBlue). The note with it: human, A549 cells. The method, then: as §1
Data set [4] can be described thus: Maximum tolerated dose (MTD). The note with it: female, Syrian, hamster, in vivo, ip. Here is the method:
Maximum tolerated dose (MTD). […] Before dosing, compounds were diluted in 10% DMSO, 10% Cremophor EL and 80% sodium chloride physiological solution. […] At day 14 animals were sacrificed with a lethal dose of thiopental. All inoculations were done via intraperitoneal.

For data set [5], the system named is HAdV. Put plainly: Combination study (Chou-Talalay, CalcuSyn) in plaque assay. In kind it is cell-based. From the text: Synergistic Activity of Selected Derivatives. […] To assess this hypothesis, we conducted a combination study based on the Chou-Talalay method for drug combination using the CalcuSyn software (Chou, and Talalay, Adv. Enzyme Regul. 1984, 22, 27-55; Matthews et al., PLoS One. 2017, 12, e0173303) using those compounds with lower IC50 in the plaque assay and higher SI, compound 87 from this work and compounds 17 (JMX0312), 58 (JMX0281) from our first library of derivatives. The constant ratio for each combination was selected based on the IC50 values for each drug.
Synergistic Activity of Selected Compounds. […] To evaluate, a combination study was conducted based on the Chou-Talalay method for drug combination using the CalcuSyn software. The constant ration for each combination was selected based on the IC50 values for each drug.

Data set [6] concerns HCMV. Put plainly: HCMV DNA quantification by real-time PCR. The note with it: HFF cells, 72 h, 10-fold plaque IC50 (niclosamide 5 μM). In kind it is cell-based, human cytomegalovirus. Here is the method: HCMV DNA Quantification by Real-Time PCR. […] Then, cells were incubated for 72 h at 37° C. and 5% CO2 and HCMV DNA was purified from the cell lysate using the QIAamp DNA Mini Kit (Qiagen, Valencia, Calif.) following the manufacturer's instructions. Real-time PCR primers, mixtures and protocols were the same as previously reported (Sanchez-Cespedes et al., J. Med. Chem. 2016, 59, 5432-5448).
In general terms: Quantitative PCR measures a nucleic acid by following its amplification.

Data set [7] concerns HAdV5. Put plainly: HAdV-mediated endosome disruption (α-sarcin co-delivery assay). In kind it is cell-based, HAdV-5. The following applies: FIG. 11; virus below 12 ng; similar to ts1 mutant.
Data set [8] deals with HAdV-5. Put plainly: Thermostability assay (HAdV capsid uncoating). In kind it is cell-based. The following applies: FIG. 12; 50 μM, 24 h post-infection. From the text: The studies described above delineate the step of infection that is targeted by 161; however, the precise molecular mechanism involved in its antiviral activity remained to be established. One alternative mode of action was that 161 could block HAdV-mediated lysis of the endosome by stabilizing the virus capsid, thereby preventing uncoating. Indeed, human defensins and neutralizing antibodies have been previously shown to act through this mechanism (Smith et al., Cell Host Microbe, 2008, 3, 11-19). To determine whether 161 impacts HAdV uncoating, we used a thermostability assay that mimics virus disassembly in the endosome, which was previously described by Wiethoff et al., (Wiethoff et al., J. Virol. 2005, 79, 1992-2000), with a few modifications. In this assay, temperatures above 48° C. promote selective removal of the virus vertex region. HAdV-5 was incubated with or without 50 μM concentrations of 161 at temperatures from 37° C. to 52° C. and then added to cells to evaluate the viability of the viruses. […] Upon heating HAdV-5 to 48° C. or above, in those non-treated with compound 161, there was no GFP expression 24 h post-infection.

The mark [9] stands for this setting: 0 h, FIG. 2, read-out: inhibition of HAdV infection after addition at the moment of the infection (0 min).
Setting [10] is: combination 17 & 58 (1:2.5), read-out: IC50 combination.
Setting [11] is: combination 17 & 87 (1:1.5), read-out: IC50 combination.
Setting [12] is: derivative alone, read-out: IC50 Single.
Setting [13] is: combination 87 & 58 (1:1.7), read-out: IC50 combination.

This is an account of results in patent US20230140290A1, “SALICYLAMIDE DERIVATIVES AND RELATED METHODS OF MAKING” (THE BOARD OF REGENTS OF THE UNIVERSITY OF TEXAS SY, priority 2020, published 2023).

Like-named read-outs stand apart in the source and are kept apart here. A value given as a limit tells only on which side of the number the result lay.

What is called MTD is the largest dose that counted as tolerated. Low readings indicate poorer tolerability, high ones better tolerability. The term IC50 denotes the midpoint of a concentration-inhibition curve.

In the case of `O=C(Nc1ccc([N+](=O)[O-])cc1F)c1cc(Cl)ccc1O` [Compound 11, 5-Chloro-N-(2-fluoro-4-nitrophenyl)-2-hydroxybenzamide], the CC50 in data set [1] worked out at 10.9 µM. In addition, the “loss of inhibition when added between 20 and 40 p.i.” value in data set [2] (FIG. 2, 5 μM) was determined as 34%.

Molecule `O=C(Nc1cc(F)cc(C(F)(F)F)c1)c1cc(Cl)ccc1O` [Compound 17, 5-Chloro-N-(3-fluoro-5-(trifluoromethyl)phenyl)-2-hydroxybenzamide] displayed a CC50 at 48 h in data set [3] of 120000 ± 33600 nM. The inhibition at 10 µM in data set [2] (setting [9]) is less than 50%. In addition, the MTD at 14 days in data set [4] worked out at 12.5 mg/kg. Besides, the results for the IC50 in data set [5] (setting [10]), in data set [5] (setting [11]) and in data set [5] (setting [12]) were 100 ± 10 nM, 90 nM and 180 ± 10 nM, respectively.

For the molecule `CC(C)[C@H](NC(=O)c1cc(Cl)ccc1O)C(=O)Nc1ccc([N+](=O)[O-])cc1Cl` [Compound 58, (S)-5-Chloro-N-(1-((2-chloro-4-nitrophenyl)amino)-3-methyl-1-oxobutan-2-yl)-2-hydroxybenzamide], the CC50 at 48 h in data set [3] stood at 200000 nM. Also, in data set [2] (setting [9]), the inhibition at 10 µM was less than 50%. This molecule also gave an MTD at 14 days in data set [4] of 50 mg/kg. Moreover, the IC50 is 250 ± 20 nM in data set [5] (setting [10]), 500 ± 40 nM in data set [5] (setting [13]) and 450 ± 60 nM in data set [5] (setting [12]).

Regarding `O=C(N[C@H](Cc1ccccc1)C(=O)Nc1ccc([N+](=O)[O-])cc1Cl)c1cc(Cl)ccc1O` [Compound 60, (R)-5-Chloro-N-(1-((2-chloro-4-nitrophenyl)amino)-1-oxo-3-phenylpropan-2-yl)-2-hydroxybenzamide], the CC50 in data set [1] was 77.9 µM. In data set [2] (20 min, read-out: inhibition of HAdV infection when added after 20 min p.i., FIG. 2), the inhibition at 10 µM is less than 50%.

In the case of `CC1(Nc2ccc(NC(=O)c3cc(Cl)ccc3O)c(Cl)c2)CCCC1` [Compound 87, 5-Chloro-N-(2-chloro-4-((1-methylcyclopentyl)amino)phenyl)-2-hydroxybenzamide], the CC50 in data set [1] was 157 µM. For the same molecule, the “decrease of total HCMV DNA compared to the DMSO control” value in data set [6] is “no significant inhibition”. For the same molecule, the MTD at 14 days in data set [4] amounted to 150 mg/kg. Also, the IC50 was 140 nM in data set [5] (setting [11]), 300 ± 20 nM in data set [5] (setting [13]) and 270 ± 160 nM in data set [5] (setting [12]).

In the case of `O=C(NCC1CCCCC1)c1cc(Cl)ccc1O` [Compound 161, 5-Chloro-N-(cyclohexylmethyl)-2-hydroxybenzamide], the inhibition at 0.78 µM in data set [2] (0 h, read-out: inhibitory activity at 0 min post-infection) worked out at 95.3%. The inhibition at 0.78 µM in data set [2] (20 min, read-out: inhibitory activity at 20 min p.i.) turned out to be 30.7%. Also, the HAdV-mediated endosome lysis result in data set [7] is recorded as “prevented HAdV-mediated endosome lysis”. For the same molecule, in data set [8], the “GFP expression of viruses heated to 48° C.” value is given as “significant levels of GFP expression” and the “GFP expression of viruses heated to 52° C.” value is “some residual expression”.
